The Ki is a measure of affinity in units of concentration, obtained from inhibition or displacement.

SMILES strings stand for the structures.

Data on three molecules can be found in paper PMC6327989 (Journal of Enzyme Inhibition and Medicinal Chemistry, 2019).

The target of this experiment is recombinant Sphingomyelinase D (SMase D) from L. laeta venom (Loxosceles laeta, UniProt Q8I914). Nature of the experiment: biochemical.
recombinant Sphingomyelinase D (SMase D) from L. laeta venom, sequence (Q8I914 27-311 limits assumed): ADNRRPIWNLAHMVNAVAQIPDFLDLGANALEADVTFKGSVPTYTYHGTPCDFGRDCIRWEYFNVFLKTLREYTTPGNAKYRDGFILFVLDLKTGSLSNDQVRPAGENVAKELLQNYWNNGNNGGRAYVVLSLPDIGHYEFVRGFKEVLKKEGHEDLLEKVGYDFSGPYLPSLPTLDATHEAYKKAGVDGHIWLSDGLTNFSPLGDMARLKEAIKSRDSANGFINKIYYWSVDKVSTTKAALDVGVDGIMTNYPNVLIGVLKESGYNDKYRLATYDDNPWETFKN

Consider `Cc1cc(OS(=O)(=O)c2ccc(Cl)cc2)cc2c1C(=O)/C(=C/c1cccnc1)O2` [compound 6, 4-methyl-3-oxo-2–(3-pyridylmethylene)benzo[3,4-b]furan-6-yl 4-chlorobenzenesulphonate], for which the inhibition constant Ki worked out at 590 ± 230 nM.

With `Cc1[nH]c2ccccc2c1/C=N/NS(=O)(=O)c1ccc(Br)cc1` [compound 5, 4-bromo-N-[(E)-(2-methyl-1H-indol-3-yl)methyleneamino]benzenesulfonamide], the Ki was 490 ± 100 nM.

With `Cc1ccc(S(=O)(=O)Oc2cc(N)nc(SCc3ccc(C#N)cc3)n2)cc1` [compound 1, 6-amino-2-((4-cyanobenzyl)thio)pyrimidin-4-yl 4-methylbenzenesulphonate], the Ki was 540 ± 130 nM.
